Laboratory results reported in PubChem BioAssay AID200 (DTP/NCI, 2004).
Several values for one entry are separate records, joined by “and”; a condition that tells them apart may be missing. Equal entries are not always repeated. Toxic doses and inconclusive results are not listed. Rule for the calls: active = survival T/C of 150% or more; inactive = T/C below 125% in these data.

Test system: B6C3F1 mice, B16 melanoma ip, median survival T/C
Experiment: NCI In Vivo Anticancer Drug Screen. Data for tumor model B16 Melanoma (intraperitoneal) in B6C3F1 mice
Conditions: endpoint: median survival time, schedule: Q01DX009 (ip), higher = longer survival
Summary of the method: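 Values are T/C ratios: the measurement in treated animals divided by that in vehicle-treated controls, using survival or tumor size in mice carrying transplantable tumors.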

[1] = dose: 6.25 mg/kg/injection, vehicle: Klucel (hydroxypropylcellulose) (HPC)
[2] = dose: 12.5 mg/kg/injection, vehicle: Klucel (hydroxypropylcellulose) (HPC)
[3] = dose: 25.0 mg/kg/injection, vehicle: Klucel (hydroxypropylcellulose) (HPC)
[4] = dose: 50.0 mg/kg/injection, vehicle: Klucel (hydroxypropylcellulose) (HPC)
[5] = dose: 12.5 mg/kg/injection, vehicle: saline with Tween-80
[6] = dose: 25.0 mg/kg/injection, vehicle: saline with Tween-80
[7] = dose: 50.0 mg/kg/injection, vehicle: saline with Tween-80
[8] = dose: 12.5 mg/kg/injection, vehicle: saline

Measured: T/C

C[As](C)SCCC(N)C(=O)NC(CCS[As](C)C)C(=O)O (centres undefined)
inactive: [1] 86 % of control | [2] 91 % of control | [3] 96 % of control | [4] 96 % of control

COc1c2occc2c(N=NN(C)C)c2ccc(=O)oc12
inactive: dose: 6.25 mg/kg/injection, vehicle: saline with Tween-80 98 % of control | [5] 99 % of control | [6] 104 % of control | [7] 107 % of control

CN1CCN(CCCN2c3ccccc3Sc3ccc(C(F)(F)F)cc32)CC1
inactive: dose: 3.12 mg/kg/injection, vehicle: saline 100 % of control | dose: 6.25 mg/kg/injection, vehicle: saline 106 % of control | dose: 8.0 mg/kg/injection, vehicle: saline 107 % of control | [8] 98 % of control | dose: 16.0 mg/kg/injection, vehicle: saline 93 % of control | dose: 32.0 mg/kg/injection, vehicle: saline 87 % of control

Cc1ncc([N+](=O)[O-])n1CCO
inactive: dose: 37.5 mg/kg/injection, vehicle: Klucel (hydroxypropylcellulose) (HPC) 103 % of control | dose: 75.0 mg/kg/injection, vehicle: Klucel (hydroxypropylcellulose) (HPC) 100 % of control | dose: 150.0 mg/kg/injection, vehicle: Klucel (hydroxypropylcellulose) (HPC) 101 % of control | dose: 300.0 mg/kg/injection, vehicle: Klucel (hydroxypropylcellulose) (HPC) 92 % of control | dose: 600.0 mg/kg/injection, vehicle: Klucel (hydroxypropylcellulose) (HPC) 100 % of control

COP12(OCCO1)SC(C(F)(F)F)=C(C(F)(F)F)S2
inactive: [5] 100 % of control | [6] 96 % of control | [7] 104 % of control

C=CCOCC1CO1 (centres undefined)
inactive: [8] 98 % of control and 99 % of control | dose: 25.0 mg/kg/injection, vehicle: saline 111 % of control and 101 % of control | dose: 50.0 mg/kg/injection, vehicle: saline 92 % of control and 103 % of control | dose: 100.0 mg/kg/injection, vehicle: saline 111 % of control and 104 % of control | dose: 200.0 mg/kg/injection, vehicle: saline 111 % of control and 99 % of control

COc1cc2c(oc(=O)c3cc(C)cc(OC)c32)c2c(C3OC(C)C(O)C(C)(O)C3O)ccc(O)c12 (centres undefined)
inactive: dose: 1.56 mg/kg/injection, vehicle: DMSO 94 % of control and 103 % of control | dose: 3.12 mg/kg/injection, vehicle: DMSO 109 % of control and 107 % of control | dose: 6.0 mg/kg/injection, vehicle: DMSO 88 % of control | dose: 6.25 mg/kg/injection, vehicle: DMSO 119 % of control and 96 % of control and 104 % of control | dose: 12.0 mg/kg/injection, vehicle: DMSO 96 % of control | dose: 12.5 mg/kg/injection, vehicle: DMSO 121 % of control

O=S(=O)(c1cccc(N=C=S)c1)c1cccc(N=C=S)c1
inactive: [1] 109 % of control | [2] 94 % of control

O=C(O)CSc1c(Cl)c(=O)oc2ccc(Cl)cc12
inactive: [1] 97 % of control | [2] 95 % of control | [3] 101 % of control | [4] 107 % of control | dose: 100.0 mg/kg/injection, vehicle: Klucel (hydroxypropylcellulose) (HPC) 116 % of control

O=C(NC(Cc1cccc(F)c1)C(=O)O)c1ccccc1 (centres undefined)
inactive: dose: 6.25 mg/kg/injection, vehicle: other 104 % of control | dose: 12.5 mg/kg/injection, vehicle: other 110 % of control | dose: 25.0 mg/kg/injection, vehicle: other 99 % of control | dose: 50.0 mg/kg/injection, vehicle: other 88 % of control
